Consider 5 molecules from patent publication US9469674B2 (HAINAN UNIVERSITY, dated 2016).

One test addresses α9α10 nAChR (Rattus norvegicus, UniProt P43144+Q9JLB5). The test is described as follows: cell-based.
For the next test, the target named is human α6/α3β2β3 nAChR (Homo sapiens, UniProt P17787+P32297+Q15825). The test is described as follows: cell-based. The class given is cell-based.
Another test has as its target α4β2 nAChR (Rattus norvegicus, UniProt P09483+P12390). Description: cell-based.
In another test the target is α6/α3β4 nAChR (Rattus norvegicus, UniProt P04757+P12392+P43143). The test is described as follows: cell-based. The class given is cell-based.
The target of a further test is α4β4 nAChR (Rattus norvegicus, UniProt P09483+P12392). The test is described as follows: cell-based. The class given is cell-based.
Test [1] deals with Chronic Constriction Injury model of ischiadic nerve (neuralgia). The note with it: rat, in vivo.
Another test addresses α3β4 nAChR (Rattus norvegicus, UniProt P04757+P12392). The test is described as follows: cell-based. It is filed as cell-based.
The target in a further test is α3β2[T59I] nAChR mutant (Rattus norvegicus, UniProt P04757+P12390, T83I). The class given is cell-based.
The target in another test is α7 nAChR (Rattus norvegicus, UniProt Q05941). Description: cell-based. It is filed as cell-based.
The target of another test is α6/α3β2β3 nAChR (Rattus norvegicus, UniProt P04757+P12390+P43143). The test is described as follows: cell-based. The class given is cell-based.
Test [2] addresses human α3β2 nAChR (Homo sapiens, UniProt P17787+P32297). The class given is cell-based.
The next test has as its target α3β2[V111I] nAChR mutant (Rattus norvegicus, UniProt P04757+P12390, V135I). It is filed as cell-based.
The subject of test [3] is hot-plate pain threshold in Kunming mice. The note with it: mouse, in vivo.
In a further test the target is α3β2[Q34A] nAChR mutant (Rattus norvegicus, UniProt P04757+P12390, Q58A). The class given is cell-based.
The next test deals with α3β2 nAChR (Rattus norvegicus, UniProt P04757+P12390). The test is described as follows: cell-based. The class given is cell-based.
The target in the next test is α3β2[T59L] nAChR mutant (Rattus norvegicus, UniProt P04757+P12390, T83L). The class given is cell-based.
For another test, the target named is α3β2[T59K] nAChR mutant (Rattus norvegicus, UniProt P04757+P12390, T83K). It is filed as cell-based.
For a further test, the target named is α2β2 nAChR (Rattus norvegicus, UniProt P12389+P12390). The test is described as follows: cell-based. The class given is cell-based.
The next test concerns the target α3β2[K79A] nAChR mutant (Rattus norvegicus, UniProt P04757+P12390, K103A). It is filed as cell-based.
Another test concerns the target α3β2[F119Q] nAChR mutant (Rattus norvegicus, UniProt P04757+P12390, F143Q). It is filed as cell-based.
Test [4] has as its target α3β4 acetylcholine receptor. Particulars: read-out: half-blocking dose IC50; cited from earlier work.
Test [5] has as its target α9α10 acetylcholine receptor (Homo sapiens, UniProt Q9GZZ6+Q9UGM1). The note with it: read-out: half-blocking dose IC50; cited from earlier work.
The target in test [6] is α3β2 acetylcholine receptor (Homo sapiens, UniProt P17787+P32297). Particulars: read-out: half-blocking dose IC50; cited from earlier work.
Test [7] concerns the target α7 acetylcholine receptor (Homo sapiens, UniProt P36544). Particulars: read-out: half-blocking dose IC50; cited from earlier work.
A further test has as its system α7/5HT3 chimera. Particulars: read-out: half-blocking dose IC50; cited from earlier work.
Test [8] has as its target α4β2 acetylcholine receptor (Homo sapiens, UniProt P17787+P43681). The note with it: read-out: half-blocking dose IC50; cited from earlier work.
For test [9], the target named is α4β4 acetylcholine receptor (Homo sapiens, UniProt P30926+P43681). The note with it: read-out: half-blocking dose IC50; cited from earlier work.
Test [10] has as its target α2β4 acetylcholine receptor (Homo sapiens, UniProt P30926+Q15822). The note with it: read-out: half-blocking dose IC50; cited from earlier work.
The target in test [11] is α6/α3β4 acetylcholine receptor. Particulars: read-out: half-blocking dose IC50; cited from earlier work.
For test [12], the target named is α6/α3β2β3 acetylcholine receptor. The note with it: read-out: half-blocking dose IC50; cited from earlier work.
The target in the next test is rat α7 nAChR (rat, UniProt Q05941). Description: cell-based or functional assay.
Another test concerns the target rat α4β4 nAChR (rat, UniProt P09483). The test is described as follows: cell-based or functional assay.
The next test deals with rat α9α10 nAChR (rat, UniProt P43144). The test is described as follows: cell-based or functional assay.
A further test has as its target rat α2β4 nAChR (rat, UniProt P12389). The test is described as follows: cell-based or functional assay.
Another test concerns the target rat α2β2 nAChR (rat, UniProt P12389). Description: cell-based or functional assay.
The target in the next test is rat α4β2 nAChR (rat, UniProt P09483). Description: cell-based or functional assay.
In test [13] the target is human α3β2 nAChR (human, UniProt P32297). Description: cell-based or functional assay.
The mark [14] stands for this setting: read-out: IC50 (half-blocking dose).

Where “and” joins values, the source holds several entries; their conditions need not be identical. Equal entries are not always repeated. Entries after “also recorded” stand apart in the source; their conditions may differ. Where two headings read alike, the source gives them in different places. Where no end group is shown, it is not given here.

Chain of α3β2[V111I] nAChR mutant (P04757 26-499 limits assumed, stated change not applied): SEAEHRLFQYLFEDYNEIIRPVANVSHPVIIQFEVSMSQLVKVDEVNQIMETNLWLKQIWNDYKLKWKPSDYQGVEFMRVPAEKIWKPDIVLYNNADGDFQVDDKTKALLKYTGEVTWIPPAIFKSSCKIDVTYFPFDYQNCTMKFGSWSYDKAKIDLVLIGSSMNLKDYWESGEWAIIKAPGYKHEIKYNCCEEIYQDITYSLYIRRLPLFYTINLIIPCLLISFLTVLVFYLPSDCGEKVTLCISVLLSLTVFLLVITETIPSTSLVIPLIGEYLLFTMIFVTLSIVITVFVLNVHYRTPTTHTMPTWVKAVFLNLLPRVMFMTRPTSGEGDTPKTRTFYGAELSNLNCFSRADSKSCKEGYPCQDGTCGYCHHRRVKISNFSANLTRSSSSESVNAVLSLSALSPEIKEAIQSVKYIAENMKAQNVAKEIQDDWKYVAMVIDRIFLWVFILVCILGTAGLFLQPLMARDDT
Chain of α3β2[V111I] nAChR mutant (P12390 25-500 V135I limits assumed, stated change not applied): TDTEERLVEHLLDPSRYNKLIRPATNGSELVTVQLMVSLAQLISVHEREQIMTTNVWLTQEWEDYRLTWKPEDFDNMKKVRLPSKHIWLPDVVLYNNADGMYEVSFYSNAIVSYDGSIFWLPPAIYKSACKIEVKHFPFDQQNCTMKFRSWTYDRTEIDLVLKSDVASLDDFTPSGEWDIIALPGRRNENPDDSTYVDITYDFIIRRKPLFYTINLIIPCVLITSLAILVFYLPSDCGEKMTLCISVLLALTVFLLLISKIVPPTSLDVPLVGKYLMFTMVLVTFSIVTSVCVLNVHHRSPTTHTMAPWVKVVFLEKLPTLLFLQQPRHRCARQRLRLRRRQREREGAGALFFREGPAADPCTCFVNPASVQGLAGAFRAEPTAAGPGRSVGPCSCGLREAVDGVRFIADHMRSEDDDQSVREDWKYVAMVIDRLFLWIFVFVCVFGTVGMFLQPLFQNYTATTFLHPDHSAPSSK
Chain of α3β2[T59L] nAChR mutant (P04757 26-499 limits assumed, stated change not applied): as the sequence (P04757 26-499 limits assumed, stated change not applied) above
Chain of α3β2[T59L] nAChR mutant (P12390 25-500 T83L limits assumed, stated change not applied): as the sequence (P12390 25-500 V135I limits assumed, stated change not applied) above, with T59L, I111V counted along it
Chain of α3β2[T59K] nAChR mutant (P04757 26-499 limits assumed, stated change not applied): as the sequence (P04757 26-499 limits assumed, stated change not applied) above
Chain of α3β2[T59K] nAChR mutant (P12390 25-500 T83K limits assumed, stated change not applied): as the sequence (P12390 25-500 V135I limits assumed, stated change not applied) above, with T59K, I111V counted along it
Chain of α3β2[F119Q] nAChR mutant (P04757 26-499 limits assumed, stated change not applied): as the sequence (P04757 26-499 limits assumed, stated change not applied) above
Chain of α3β2[F119Q] nAChR mutant (P12390 25-500 F143Q limits assumed, stated change not applied): as the sequence (P12390 25-500 V135I limits assumed, stated change not applied) above, with I111V, F119Q counted along it
Chain of α7 acetylcholine receptor (P36544 23-502 limits assumed): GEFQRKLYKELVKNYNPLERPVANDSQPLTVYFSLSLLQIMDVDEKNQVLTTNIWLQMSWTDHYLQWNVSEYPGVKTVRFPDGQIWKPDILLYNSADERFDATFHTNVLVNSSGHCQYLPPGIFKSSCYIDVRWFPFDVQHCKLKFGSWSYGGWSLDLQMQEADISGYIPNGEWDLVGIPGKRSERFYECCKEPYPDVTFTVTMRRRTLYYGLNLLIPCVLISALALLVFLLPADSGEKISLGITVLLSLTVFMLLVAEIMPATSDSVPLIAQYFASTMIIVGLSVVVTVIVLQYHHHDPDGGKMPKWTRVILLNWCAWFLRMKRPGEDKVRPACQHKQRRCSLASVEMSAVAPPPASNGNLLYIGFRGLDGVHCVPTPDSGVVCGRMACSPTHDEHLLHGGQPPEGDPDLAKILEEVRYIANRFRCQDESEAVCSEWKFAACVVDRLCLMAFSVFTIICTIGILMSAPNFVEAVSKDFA
Chain of α7 nAChR (Q05941 23-502 limits assumed): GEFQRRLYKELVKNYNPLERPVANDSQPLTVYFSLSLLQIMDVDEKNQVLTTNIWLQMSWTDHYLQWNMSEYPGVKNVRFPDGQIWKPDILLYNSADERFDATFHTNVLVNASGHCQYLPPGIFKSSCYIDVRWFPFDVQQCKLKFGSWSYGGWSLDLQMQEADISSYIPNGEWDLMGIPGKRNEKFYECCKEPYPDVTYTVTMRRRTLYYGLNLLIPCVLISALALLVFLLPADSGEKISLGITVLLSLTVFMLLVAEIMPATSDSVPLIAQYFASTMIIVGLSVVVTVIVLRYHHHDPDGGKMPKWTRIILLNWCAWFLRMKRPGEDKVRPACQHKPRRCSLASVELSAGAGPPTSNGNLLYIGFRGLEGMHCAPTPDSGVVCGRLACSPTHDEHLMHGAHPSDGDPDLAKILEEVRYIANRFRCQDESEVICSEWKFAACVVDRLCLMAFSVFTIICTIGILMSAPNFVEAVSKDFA

Broadly, the IC50 is the concentration that inhibits the measured activity by half. With `CC[C@H](C)[C@@H]1NC(=O)[C@H](CCC(=O)O)NC(=O)[C@@H]2CCCN2C(=O)[C@H](Cc2cnc[nH]2)NC(=O)[C@H](CC(=O)O)NC(=O)[C@H](C(C)C)NC(=O)[C@H](CC(N)=O)NC(=O)[C@@H]2CSSC[C@H](NC(=O)CN)C(=O)N[C@@H](CSSC[C@@H](C(N)=O)NC1=O)C(=O)N[C@@H](CO)C(=O)N[C@@H](Cc1cnc[nH]1)C(=O)N1CCC[C@H]1C(=O)N[C@@H](C)C(=O)N2` [LvIA/LvD21], the IC50 on α9α10 nAChR is over 10000 nM; at α9α10 nAChR (setting [14]), over 10000 nM; against human α6/α3β2β3 nAChR, 5340 nM; against α4β2 nAChR, over 10000 nM; on α4β2 nAChR (setting [14]) it was over 10000 nM; against α4β4 nAChR, over 10000 nM. Further, the IC50 on α4β4 nAChR (setting [14]), on α2β2 nAChR and on α2β2 nAChR (setting [14]) was over 10000 nM in each case. The “Hill slope of dose-response curve” value at human α6/α3β2β3 nAChR is on record as 0.85 (0.55-1.15); at α6/α3β4 nAChR, 0.94 (0.66-1.22); on α3β4 nAChR, 1.14 (0.72-1.55); at α7 nAChR, 0.65 (0.43-0.87); at α6/α3β2β3 nAChR, 0.60(0.48-0.72); at human α3β2 nAChR [2], 0.81 (0.44-1.18). Also, the “Hill slope of dose-response curve” value at α3β2 nAChR was 1.17 (0.88-1.46). In addition, the “analgesic effect on neuralgia” value in [1] is on record as “potent analgesic effects”. For the same molecule, the “analgesic effect times higher than that of morphine, same weight and dose” value in test [1] is listed as 823-1176 times. The “average analgesic value (Mechanical Threshold, % of basal)” value in test [1] is listed as 160%; in test [1] (ip) it was “up to 200%”. The “mechanical threshold after withdrawal” value in [1] is “significantly higher than that of morphine group”. The analgesic value entry in test [1] (ip) is “far higher than morphine”. The “analgesic value in some cases (Mechanical Threshold, % of basal)” value in [1] (ip) was “up to 200%”. Also, the “Elution time after blocking” value at α3β2[T59I] nAChR mutant was 2 min; on α3β2[V111I] nAChR mutant, 1 min; at α3β2[Q34A] nAChR mutant it was 2 to 3 min; at α3β2[T59L] nAChR mutant it was 5 to 8 min; at α3β2[T59K] nAChR mutant it was 20 min; at α3β2[K79A] nAChR mutant, 1 min. On α3β2[F119Q] nAChR mutant, the “Elution time after blocking” value was 12 min and 10 to 12 min. Besides, the “Hill slope of dose-response curves” value is 1.15(0.43-1.86) on α3β2[T59I] nAChR mutant; 1.31(0.66-1.96) on α3β2[V111I] nAChR mutant; 0.90(0.22-1.58) at α3β2[Q34A] nAChR mutant; 1.17(0.79-1.54) on α3β2 nAChR; 1.07(0.77-1.37) on α3β2[T59L] nAChR mutant; 0.80(0.47-1.13) on α3β2[T59K] nAChR mutant. Besides, the “Hill slope of dose-response curves” value on α3β2[K79A] nAChR mutant is listed as 0.86(0.43-1.30); on α3β2[F119Q] nAChR mutant, 1.12(0.79-1.44). The “blocking activity to α3β2 times higher than to α6/α3β2β3” value on human α3β2 nAChR [2] is about 305 times; on α3β2 nAChR, about 100 times. Also, the current blocked entry is given as “does not block at all; also recorded: totally did not block” on α3β2[V111I] nAChR mutant, “about 50%” at α3β2 nAChR, “blocked all current” on α3β2[T59K] nAChR mutant and “blocked all current” on α3β2[F119Q] nAChR mutant. Also, in [3], the “analgesic effect times higher than that of morphine, same weight and dosage” value is recorded as 764-882 times. The pain threshold in [3] stood at 30 s. In [3], the “pain threshold in comparison with the pain threshold of morphine” value is 1.3-1.5 times and 1.3 times. In addition, the “% of recovered current within elution time” value at α3β2 nAChR was found to be 100%. Also, the entries for the “blocking of ACh-gated current” value on α3β2 nAChR and at α2β2 nAChR were “specifically blocks; also recorded: completely blocks” and “totally does not block; also recorded: no blocking activity”, respectively. In addition, on α3β2 nAChR, the “time to complete elution after block” value is listed as at most 2 min. For the same molecule, the “blocking activity times higher than that to wild type α3β2 nAChR” value at α3β2[T59L] nAChR mutant stood at 7 times; on α3β2[T59K] nAChR mutant, 15 times; at α3β2[F119Q] nAChR mutant, 25 times.
GCCSDPRCAWR----C* [ImI]: the IC50 was 3390 nM in [4]; 2000 nM in test [5]; 41 nM in test [6]; 595 nM in [7]; 217 nM with α7/5HT3 chimera.
GCCSHPACAGNNQHIC* [GIC]: the values for the IC50 in test [4], in test [6] and in test [8] were 755 nM, 1.1 nM and 309 nM, respectively.
For GCCSTPPCAVLY---C* [BuIA], the IC50 was 27.7 nM in [4]; 69.9 nM in [9]; 5.72 nM in test [6]; 121 nM in [10]; 272 nM in test [7]; 1.54 to 2.1 nM in [11]. For the same molecule, the IC50 in [12] was 0.26 to 0.46 nM.
Regarding GCCSHPACNVDHPEIC (not fully specified; ends and bridges not checked) [α-conotoxin LvIA/LvD21], the “IC50 (half-blocking dose) on ACh-gated current” value was 3000 nM with rat α7 nAChR; over 10000 nM with rat α4β4 nAChR; over 10000 nM in the test with rat α9α10 nAChR; 15500 nM with rat α2β4 nAChR; over 10000 nM with rat α2β2 nAChR; over 10000 nM in the test with rat α4β2 nAChR. In the test with human α3β2 nAChR [13], the “IC50 (half-blocking dose) on ACh-gated current” value came out at 17.5 nM.
